Here are results for one compound from patent publication US9408811B2, “Pharmaceutical composition comprising guttiferone F for the treatment of prostate cancer” (Hong Kong Baptist University, priority 2013, dated 2016).

The test system of one test is Hep G2. As to the kind of experiment: MTT cytotoxic assay, Hep G2. It is filed as cell-based. The conditions noted are these: Homo sapiens, HepG2, 48 h of treatment. The protocol: (§1) Two human prostate cancer cell lines LNCaP and PC3 are maintained in RPMI1640 (Sigma Chemical Company, St. Louis, Mo., USA) supplemented with 10% fetal bovine serum (HyClone). Hepatocellular carcinoma cell line Hep G2, epithelial cervical cancer cell line HeLa and nasopharyngeal carcinoma cell line CNE are maintained in DMEM (Invitrogen) supplemented with 10% new-born calf serum (Gibco), 100 U/ml penicillin and 100 μg/ml streptomycin (Invitrogen). All cancer cells are maintained in a humidified atmosphere containing 5% CO2 at 37° C.
(§2) Different cancer cells are seeded in a 96-well plate and pre-incubated for 24 hours before treatment with Guttiferone F (0-50 μM). After 48 h of treatment, 10 μl of MTT solution (5 mg/ml) (Sigma Chemical Company, St. Louis, Mo., USA) are added to each well and incubated for 4 h. The resulting crystals are dissolved in DMSO. The controls include native cells and medium only. The spectrophotometric absorbance at 570 nm is measured using a microplate reader (Synergy HT, Bio-Tek Instruments Inc., Winooski, Vt., USA). The percentage cytotoxicity is calculated by the formula: Percentage cytotoxicity (cell death)=[1-(absorbance of experimental wells/absorbance of control wells)]×100%.

The subject of a further test is HeLa. Kind of test: MTT cytotoxic assay, HeLa. The note with it: Homo sapiens, 48 h of treatment. It is filed as cell-based. The protocol: as §1, §2
(In general: Tetrazolium assays rely on reduction of a dye to a coloured formazan, in cell work by metabolically active cells.)

For test [1], the system named is PC3 cells. Kind of test: PC3 xenograft nude mouse model A, intratumoral injection. The format is in vivo, nude mice. The note with it: intratumoral injection every two days for 20 days; 20 μM 3 times, then 100 μM; FIG. 4, p<0.05. The method, then: A total of 1×10^6 PC3 cells suspended in 100 μl of PBS and 100 μl of Matrigel (BD Biosciences, Bedford, Mass.) are inoculated subcutaneously (s.c.) into the right flank of six 4-week-old male nude mice. Drug injections are made once the tumors reach an average volume of about 100 mm^3. Mice are divided randomly into two groups of 3 mice in each group and subjected to intratumoral injection of vehicle (control) or […] Guttiferone F every two days for 20 days. (After 20 μM GF for 3 times, the dosage is increased to 100 μM GF). Tumor volume is measured by calipers and calculated by V=L×W^2/2 at different time intervals. For intratumoral injection, […] Guttiferone F is prepared in 5% dimethyl sulfoxide, 5% tween 80, and 90% PBS.

The test system of test [2] is LNCaP cells. Kind of test: Flow cytometry (PI, FACS) sub-G1 apoptosis. It is filed as cell-based, human. The conditions noted are these: 10 μM, serum-free medium, 24 h and 48 h. The method, then:
Based on the result of the above MTT assay on prostate cancer cell lines, LNCaP cells and 10 μM of Guttiferone F are selected for studying the effect of Guittiferone F on apoptosis of human prostate cancer cells. Before that, LNCaP cells are treated with Guttiferone F at the concentration of 10 μM. Cells are trypsinized and fixed in ice-cold 100% methanol overnight at 4° C. Cells are washed, stained with propidium iodide (PI) for overnight, and subjected to fluorescence activated cell sorting (FACS) analysis on a FAC Scan flow cytometer (BD PharMingen, USA). Data are analyzed using the WinMID software.
To detect the apoptosis, sub-G1 phase cells were measured. Such cells are usually considered to be the result of apoptotic DNA fragmentation. The DNA is degraded by cellular endonucleases, during apoptosis. Therefore, nuclei of apoptotic cells contain less DNA than nuclei of healthy G0/G1 cells, resulting in a sub-G1 peak in the fluorescent histogram that may be used to determine the relative amount of apoptotic cells.

Test [3] deals with PC3 cells. As to the kind of experiment: PC3 xenograft nude mouse model B, intraperitoneal injection 10 mg/kg. It is filed as in vivo, nude mice. The conditions noted are these: intraperitoneal injection 10 mg/kg every two days for 18 days; FIG. 5. The method, then:
A total of 1×10^6 PC3 cells suspended in 100 μl of PBS and 100 μl of Matrigel are inoculated subcutaneously into the right flank of […] 4-week-old male nude mice. Drug injections are made once the tumors reach an average volume of about 200 mm^3. Mice are divided randomly into two groups of 7 for each group and subjected to intraperitoneal injection of vehicle or 10 mg/kg Guttiferone F every two days for 18 days. Tumor volume is measured by calipers and calculated by V=L×W^2/2. For intratumoral injection, Guttiferone F is prepared in 5% dimethyl sulfoxide, 5% tween 80, and 90% PBS.

The test system of another test is PC-3. Kind of test: MTT cytotoxic assay, PC-3. The conditions noted are these: Homo sapiens, 48 h of treatment. The format is cell-based. The protocol: as §1, §2
For test [4], the system named is PC3 cells. Kind of test: PC3 xenograft BALB/c nude mice, intraperitoneal GF with or without caloric restriction. The note with it: i.p. 20 mg/kg normally fed, or 10 mg/kg with caloric restriction, versus control; FIG. 6, p<0.01. The format is in vivo. The method, then: Four-week-old male BALB/c nude mice from the Experimental Animal Center of Chinese Academy of Science (Shanghai, China) are used in this example. Approximately 1×10^6 PC3 cells suspended in 100 μl of PBS and 100 μl of Matrigel are injected subcutaneously into the right side of the animals. One week later, 28 mice bearing tumors around 50 mm^3 in volume are randomly divided into four groups (n=7 per group): Group 1: Control (normally fed, receiving daily i.p. vehicle), Group 2: Caloric restriction (fed with 70% of their normal food intake, receiving daily i.p. vehicle), Group 3: GF (normally fed, receiving daily i.p. 20 mg/kg of GF), and Group 4: GF+caloric restriction (calorie-restricted mice receiving daily i.p. 10 mg/kg of GF). Mice are administered via intraperitoneal injection of vehicle (control) in a form of solvent (0.5% DMSO, 0.5% Tween-80 in saline) and GF at the dose of 10 mg/kg or 20 mg/kg in 200 μl vehicle once every other day. […] Using the conversion formula between animal dose and human dose taught in Regan-Shaw et al. (2007), the daily human dose of GF through intraperitoneal injection is about 1.62 mg/kg to 2.4 mg/kg (corresponding to 20 mg/kg of GF for mouse); the daily human dose of GF under calorie restriction is at least in a range of 0.81 mg/kg to 1.2 mg/kg (corresponding to 10 mg/kg of GF for mouse).

In test [5] the test system is LNCaP cells. Kind of test: Hoechst 33258 / MitoTracker Red confocal microscopy. The format is cell-based, human. The note with it: treatment for 12 h or 24 h, laser confocal microscopy. The protocol:
Hoechst is depicted as blue in the first column of images while MitoTracker Red is depicted as red in the second column of images; double stain of Hoechst 33258 and MitoTacker Red is shown in the third column of images, in which the dotted square in each image represents the area where the part is enlarged; the corresponding enlarged area of the image from the third column is shown in the fourth column.
LNCaP cells (2×10^5) are seeded on 35 mm culture dish and incubated 24 h to allow attachment. After the different treatment of Guttiferone F for 12 h or 24 h, the medium is removed from the dish and the staining solution (50 μg/ml Hoechst 33258 and 1 ng/ml MitoTracker Red in PBS) is added. The fluorescence of the bound dyes is analyzed using a laser scanning confocal microscope (FV10i, Olympus Corporation, Japan).

The next test relates to LNCaP. Kind of test: MTT cytotoxic assay, LNCaP. It is filed as cell-based, human. The protocol:
as §1, §2

SMILES strings stand for the structures.

For `C=C(C)[C@H](CC=C(C)C)C[C@@]12C[C@@H](CC=C(C)C)C(C)(C)[C@@](CC=C(C)C)(C(=O)C(C(=O)c3ccc(O)c(O)c3)=C1O)C2=O` [Guttiferone F], the 50% inhibitory concentration (IC50) (as a rule, the concentration at which inhibition is half-maximal) in the test on Hep G2 amounted to 32.9 ± 1.56 µM; in the test on HeLa, 13.1 ± 1.32 µM; with PC-3 it was 12.6 ± 3.01 µM; with LNCaP (Homo sapiens, LNCaP, MTT, 48 h of treatment), 5.17 ± 0.2 µM. Besides, the “tumor growth (tumor volume)” value is “the growth of tumor is inhibited significantly after 14 days” with PC3 cells [1], “the growth of tumor is not inhibited significantly in 18 days” in the test on PC3 cells [3] and “tumor growth is significantly less prominent” in the test with PC3 cells [4]. Besides, the “apoptosis (sub-G1 phase cells)” value in the test with LNCaP cells [2] is listed as “induce LNCaP cell death by apoptosis significantly”. In the test on LNCaP cells [5], the “change in mitochondria and nucleus DNA” value was “DNA fragmentation and mitochondria focus are visualized”. Further, in the test on LNCaP (prostate cancer cell lines versus other cell lines, Table 1), the “selectivity between cell lines in MTT assay” value is “more specific to human prostate cancer than the others”.
